From PubChem BioAssay (NCI)
“And” between values parts separate entries of the source, which are not always exact repeats. Equal values may be shown once.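 Values below derive from 48-hour exposures of cells grown in 96-well plates, with endpoints linearly interpolated between the two concentrations bracketing the appropriate inhibition level. The concentration for 50% growth inhibition is given as GI50. At the TGI there is no net growth.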

Experiments:
Assay in all cases: NCI tumour cell line growth inhibition, 48 h
SK-MEL-5 melanoma = tested on: SK-MEL-5 melanoma
UO-31 renal = tested on: UO-31 renal
HCT-116 colon = tested on: HCT-116 colon
MOLT-4 leukemia = tested on: MOLT-4 leukemia
HCC-2998 colon = tested on: HCC-2998 colon
PC-3 prostate = tested on: PC-3 prostate
OVCAR-4 ovarian = tested on: OVCAR-4 ovarian
ACHN renal = tested on: ACHN renal
SNB-19 CNS = tested on: SNB-19 CNS
HL-60(TB) leukemia = tested on: HL-60(TB) leukemia

Compound	TGI (SK-MEL-5 melanoma)	TGI (UO-31 renal)	TGI (HCT-116 colon)	TGI (MOLT-4 leukemia)	TGI (HCC-2998 colon)	TGI (PC-3 prostate)	TGI (OVCAR-4 ovarian)	TGI (ACHN renal)	TGI (SNB-19 CNS)	TGI (HL-60(TB) leukemia)	GI50 (MOLT-4 leukemia)	GI50 (OVCAR-4 ovarian)	GI50 (SK-MEL-5 melanoma)	GI50 (UO-31 renal)	GI50 (HCT-116 colon)	GI50 (HCC-2998 colon)	GI50 (PC-3 prostate)	GI50 (ACHN renal)	GI50 (SNB-19 CNS)	GI50 (HL-60(TB) leukemia)
CC(C)(CO[C@H]1C[C@H]2CC[C@@]1(C)C2(C)C)[N+](=O)[O-]	31.6 µM	25.8 µM	29.1 µM	50.5 µM	5.19 µM	54.4 µM	76 µM	> 100 µM	37.2 µM	22.5 µM	–	–	–	–	–	–	–	–	–	–
COc1cccc2c1C(=O)c1c(O)c3c(c(O)c1C2=O)C[C@@](O)(C(C)=O)CC3OC1CC(OC2CC(N)C(O)C(C)O2)C(O)C(C)O1 (some centres not stated)	> 100 µM	> 100 µM	> 100 µM	7.24 µM	> 100 µM	> 100 µM	> 100 µM	> 100 µM	> 85.1 µM	34.8 µM	–	–	–	–	–	–	–	–	–	–
Clc1ccc2c(c1)N(CCCN1CCCC13CCCCC3)c1ccccc1S2	> 56 µM	22.4 µM	30.7 µM	18.9 µM	8.64 µM	20.6 µM	41.7 µM	47.5 µM	34.3 µM	5.18 µM	–	–	–	–	–	–	–	–	–	–
FC1=C2C3CCC(C3)C2C1(F)F (configuration not stated)	> 100 µM	> 100 µM	> 100 µM	> 100 µM	> 100 µM	> 100 µM	> 100 µM	> 100 µM	> 100 µM	> 100 µM	–	–	–	–	–	–	–	–	–	–
CC(=O)NC1C(OCc2ccccc2)OC(CO)C(O)C1OC(C)C(=O)N[C@@H](C)C(=O)N[C@H](CCC(=O)NCCNCCNc1c2ccccc2nc2cccc([N+](=O)[O-])c12)C(N)=O (some centres not stated)	0.0635 µM	0.607 µM	0.512 µM	> 100 µM	0.072 µM	0.891 µM	0.0817 µM	0.512 µM	1.86 µM	> 80.5 µM	–	–	–	–	–	–	–	–	–	–
CC(=O)n1[nH]c(=O)n(-c2ccc(Cl)cc2)c1=O	> 100 µM	> 100 µM	> 100 µM	> 100 µM	> 100 µM	> 100 µM	> 100 µM	> 100 µM	> 100 µM	> 100 µM	–	–	–	–	–	–	–	–	–	–
CC1=NN(C(=O)CC(=O)Nc2cccc(C)c2)C(=O)C1N=Nc1ccc(S(=O)(=O)CCOS(=O)(=O)O)cc1 (configuration not stated)	2.88 µM	10.5 µM	12.6 µM	> 31.7 µM	5.51 µM	11.2 µM	27 µM	17.1 µM	22.3 µM	> 100 µM	–	–	–	–	–	–	–	–	–	–
Clc1ccc2c(NCCCCCCNc3ccnc4cc(Cl)ccc34)ccnc2c1	10.9 µM	10.6 µM	3.85 µM	8.09 µM	3.32 µM	18.1 µM	5.93 µM	8.91 µM	13.5 µM	4.7 µM	–	–	–	–	–	–	–	–	–	–
CCOC(=O)c1cc(-c2ccc(OC)cc2)c([N+](=O)[O-])[nH]1	> 10 µM	> 10 µM	> 10 µM	> 10 µM	> 10 µM	> 10 µM	> 10 µM	> 10 µM	> 10 µM	> 10 µM	–	–	–	–	–	–	–	–	–	–
O=C1NC(O)c2cc3ccccc3cc2O1 (configuration not stated)	> 100 µM	> 100 µM	51.1 µM	> 100 µM	> 100 µM	> 100 µM	> 100 µM	> 100 µM	> 100 µM	> 100 µM	–	–	–	–	–	–	–	–	–	–
COC(=O)C1OC(O[C@H]2CC[C@]3(C)[C@H]4CC=C5[C@@H]6CC(C)(C)CC[C@]6(C(=O)OC6OCC(O)C(O)C6OC6OC(C)C(OC7OCC(O)C(O)C7O)C(O)C6O)[C@H](O)C[C@@]5(C)[C@]4(C)CC[C@H]3C2(C)C)C(O)C(O)C1O (some centres not stated)	19.4 µM and 25.8 µM	3.54 µM and 5.18 µM	> 100 µM and 17.4 µM	> 100 µM	6.71 µM and 3.44 µM	16.9 µM and 16.3 µM	6.7 µM and 16.5 µM	14.6 µM and 14.9 µM	17.5 µM and 21.9 µM	5.28 µM and 6.62 µM	> 42.6 µM and 14.2 µM	0.927 µM and 4.32 µM	–	–	–	–	–	–	–	–
NC(=O)[C@H](Cc1ccc(O)cc1)Nc1c(O)c2c(c(O)c1Cl)C(=O)C=CC2=O	3.04 µM	> 6.36 µM	3.27 µM	2.43 µM	> 3.16 µM	5.85 µM	3.41 µM	6.61 µM	> 10 µM	3.19 µM	–	–	–	–	–	–	–	–	–	–
O=C1c2cc3c(cc2-c2c1c1cc(F)c(F)cc1c(=O)n2CCCn1ccnc1)OCO3	0.0852 µM	0.814 µM	10.8 µM	1.24 µM	> 100 µM	> 100 µM	> 100 µM	0.134 µM	> 100 µM	16.6 µM	< 0.01 µM	0.27 µM	0.02 µM	0.0465 µM	< 0.01 µM	0.195 µM	0.124 µM	< 0.01 µM	< 0.01 µM	0.0113 µM
CSC(SC)=C(C(=O)c1ccc(Cl)cc1)n1c(=O)sc2cc(Br)ccc21	> 100 µM	> 100 µM	> 100 µM	> 100 µM	> 100 µM	> 100 µM	> 100 µM	> 100 µM	> 100 µM	> 100 µM	–	–	–	–	–	–	–	–	–	–
